The source of these data is patent US7173063B1, “Topoisomerase poisons for the treatment of proliferative disorders” (Fred Hutchinson Cancer Research Center, priority 2000, dated 2007).

The structures appear in SMILES notation. Read-outs that look alike come from different tables or passages of the source.

Assay [1] has as its system DSB repair defective rad50 and rad52 strains of Saccharomyces cerevisiae. The assay is classed as cell-based. As to conditions: for toxicity in wild-type strains: highest concentration used. The text has this: (§1) The strains are derived from the A364a genetic background, with the exception of BY4705, which is derived from the S288C background. Gene disruptions were generated by PCR fragment directed replacement (Baudin, et al., Nucleic Acids Research 21: 3329–30 (1993), Guldener, et al., Nucleic Acids Research 24: 2519–24 (1996)). Yeast overexpressing topoisomerase II was constructed by a PCR fragment directed promoter replacement of the topoisomerase II promoter with the yeast GPD promoter flanked upstream by the URA3 marker. All strains (except BY4705) bear the pleitropic drug sensitizing mutations erg6, pdr1, and pdr3 (Balzi, et al., Journal of Bioenergetics & Biomembranes 27: 71–6 (1995), Delaveau, et al, Molecular & General Genetics 244: 501–11 (1994), Gaber, et al., Molecular & Cellular Biology 9: 3447–56 (1989), Saunders, et al., Canadian Journal of Genetics & Cytology, 24: 493–503 (1982). Subik, et al, Current Genetics 10: 665–70 (1986)). The haploid yeast strain BY4705 (Brachmann, et al., Yeast 14: 115–32 (1998)) was used in the experiments described in FIG. 5. Plasmids expressing yeast or human topoisomerase I genes under the GAL promoter (Knab, et al., Journal of Biological Chemistry 268: 22322–30 (1993). Knab, et al., Journal of Biological Chemistry 270: 6141–8 (1995)) were transformed into BY4705 using standard procedures.
(§2) Yeast toxicity assays were performed essentially as follows: Exponentially growing cultures of the appropriate strains were diluted in synthetic complete media to a concentration of 7.4×10^4 cells/mL, and aliquots (135 μL) were transferred to each well of clear flat-bottomed 96 well plates. Compounds were added in duplicate or triplicate as 15 μL of the appropriate dilution in 5% DMSO. A 15 μL portion of 5% DMSO was added to control wells. […] Cell growth (OD660) in treated wells was plotted as a percentage of the growth in at least four averaged solvent control wells for the same strain. Camptothecin sodium salt (camptothecin Na) was the agent used in all yeast assays as standard.

Another assay has as its target T1, purified Topo I (Homo sapiens, UniProt P11387).
T1 sequence (P11387 1-765): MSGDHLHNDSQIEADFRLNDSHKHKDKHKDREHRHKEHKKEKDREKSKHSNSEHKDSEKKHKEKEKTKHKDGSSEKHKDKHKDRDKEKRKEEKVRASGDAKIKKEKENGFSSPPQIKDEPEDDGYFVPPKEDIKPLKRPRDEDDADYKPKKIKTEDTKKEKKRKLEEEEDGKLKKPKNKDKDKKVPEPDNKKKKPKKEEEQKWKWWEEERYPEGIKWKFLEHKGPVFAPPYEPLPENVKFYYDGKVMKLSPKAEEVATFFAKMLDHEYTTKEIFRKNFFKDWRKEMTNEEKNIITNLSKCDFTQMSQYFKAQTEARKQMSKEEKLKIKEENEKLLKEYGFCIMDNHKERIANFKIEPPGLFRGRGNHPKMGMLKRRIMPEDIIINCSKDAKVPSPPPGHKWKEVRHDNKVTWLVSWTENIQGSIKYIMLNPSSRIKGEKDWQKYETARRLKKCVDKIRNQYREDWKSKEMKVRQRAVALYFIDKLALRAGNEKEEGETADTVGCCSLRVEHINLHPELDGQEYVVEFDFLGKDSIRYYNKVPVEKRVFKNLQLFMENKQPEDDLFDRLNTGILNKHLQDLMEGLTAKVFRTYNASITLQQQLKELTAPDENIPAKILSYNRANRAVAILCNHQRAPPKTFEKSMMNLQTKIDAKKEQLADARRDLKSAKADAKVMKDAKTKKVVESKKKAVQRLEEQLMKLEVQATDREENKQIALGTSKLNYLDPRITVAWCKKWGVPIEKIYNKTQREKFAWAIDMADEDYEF
Put plainly: In vitro assay for DNA strand-break formation in the presence of purified Topo I. As to conditions: purified Topo I, in vitro; data not shown. The assay is classed as biochemical.

The target of the next assay is T2, yeast Topo I (Saccharomyces cerevisiae, UniProt P04786).
T2 construct: expressed in transfected cells; host or cells: S. cerevisiae BY4705 (S288C background), plasmid pyTOP1 under the GAL promoter, vector pRS416
T2 sequence (P04786 1-769): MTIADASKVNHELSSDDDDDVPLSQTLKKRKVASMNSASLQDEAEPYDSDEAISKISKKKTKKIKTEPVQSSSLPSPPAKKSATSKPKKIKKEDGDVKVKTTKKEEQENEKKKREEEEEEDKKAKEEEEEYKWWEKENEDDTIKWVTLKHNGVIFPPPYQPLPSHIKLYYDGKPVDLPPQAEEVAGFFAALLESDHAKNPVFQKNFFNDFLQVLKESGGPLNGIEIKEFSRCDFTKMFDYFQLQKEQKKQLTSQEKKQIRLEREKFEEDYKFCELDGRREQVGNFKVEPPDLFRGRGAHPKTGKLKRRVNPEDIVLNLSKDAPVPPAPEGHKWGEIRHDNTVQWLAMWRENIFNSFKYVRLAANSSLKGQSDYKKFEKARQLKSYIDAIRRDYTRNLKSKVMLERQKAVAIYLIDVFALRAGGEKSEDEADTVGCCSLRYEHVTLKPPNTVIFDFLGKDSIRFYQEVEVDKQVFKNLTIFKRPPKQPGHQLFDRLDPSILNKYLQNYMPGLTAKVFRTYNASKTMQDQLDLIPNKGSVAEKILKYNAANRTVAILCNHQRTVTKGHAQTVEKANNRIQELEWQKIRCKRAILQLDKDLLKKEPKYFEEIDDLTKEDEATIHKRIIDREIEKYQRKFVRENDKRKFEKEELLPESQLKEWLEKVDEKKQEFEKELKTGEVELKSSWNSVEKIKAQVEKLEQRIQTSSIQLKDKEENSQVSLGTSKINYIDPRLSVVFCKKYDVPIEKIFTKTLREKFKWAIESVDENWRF
Put plainly: Toxicity in yeast overexpressing yeast Topo I (yTOP1) or ytop1-vac mutant. The assay is classed as cell-based. The note with it: GAL promoter, galactose-induced, vs vector.
Source text: as §1, §2
In this regard, the sensitivity of yeast strains overexpressing either human or yeast topoisomerase I genes (hTOP1 or yTOP1, respectively) under the control of the inducible GAL promoter (see, for example, Knab, et al., Journal of Biological Chemistry 268: 22322–30 (1993); and Knab, et al., Journal of Biological Chemistry 270: 6141–8 (1995)) were used. Additionally, the sensitivity of yeast overexpressing the Topo I-VAC mutant enzyme, containing two amino acid substitutions (htop1-vac and ytop1-vac) that render topoisomerase I insensitive to the action of camptothecin were also examined (see, for example, Knab, et al., Journal of Biological Chemistry 268: 22322–30 (1993); and Knab, et al., Journal of Biological Chemistry 270: 6141–8 (1995)).

Setting [2] is: relative growth (OD660) vs solvent control.

Regarding `CC(=O)[C@]1(O)Cc2c(O)c3c(c(O)c2[C@@H](O[C@H]2C[C@H](N)[C@H](O)[C@H](C)O2)C1)C(=O)c1ccccc1C3=O` [idarubicin, reference compound], the “profile of selective toxicity: toxic to rad50 and rad52 strains, not toxic in rad14 or rad18 strains” value in assay [1] is recorded as “Agents with this profile include”.
As to `O=c1c(Cl)c(Cl)cnn1CCCl` [compound IIa], the “toxicity in wild-type strains” value in assay [1] is reported as “neither compounds Ia or IIa produce toxicity”. Further, the “profile of selective toxicity: toxic to rad50 and rad52 strains, not toxic in rad14 or rad18 strains” value in assay [1] (setting [2]) is “fit the profile for selective toxicity”. The strand-break induction result at purified Topo I is “did not detect strand-break induction”. The “effect of yTOP1 overexpression on toxicity” value at yeast Topo I is reported as “accentuates the toxicity”.
Take `O=C(CCl)Nc1ccc(C(=O)N/N=C/c2ccc(Cl)cc2)cc1` [compound Ia]: in assay [1], the “influence of sensitizing mutations erg6 pdr1 and pdr3 on yeast sensitivity” value is “strongly influenced”; the “toxicity in wild-type strains” value is “neither compounds Ia or IIa produce toxicity”. In addition, the “profile of selective toxicity: toxic to rad50 and rad52 strains, not toxic in rad14 or rad18 strains” value in assay [1] (setting [2]) is given as “fit the profile for selective toxicity”. Besides, on purified Topo I, the strand-break induction result is reported as “did not detect strand-break induction”. In addition, the “effect of yTOP1 overexpression on toxicity” value at yeast Topo I is on record as “Little or no accentuation”.
